{"source": "ChEMBL document CHEMBL3627608", "about": "“Crystal structures of human RIP2 kinase catalytic domain complexed with ATP-competitive inhibitors: Foundations for understanding inhibitor selectivity” (Bioorg Med Chem, 2015)", "key": {"[1]": {"molecular_target": "Mitogen-activated protein kinase 11 (Homo sapiens) (UniProt Q15759)", "sequence (Q15759 whole entry)": "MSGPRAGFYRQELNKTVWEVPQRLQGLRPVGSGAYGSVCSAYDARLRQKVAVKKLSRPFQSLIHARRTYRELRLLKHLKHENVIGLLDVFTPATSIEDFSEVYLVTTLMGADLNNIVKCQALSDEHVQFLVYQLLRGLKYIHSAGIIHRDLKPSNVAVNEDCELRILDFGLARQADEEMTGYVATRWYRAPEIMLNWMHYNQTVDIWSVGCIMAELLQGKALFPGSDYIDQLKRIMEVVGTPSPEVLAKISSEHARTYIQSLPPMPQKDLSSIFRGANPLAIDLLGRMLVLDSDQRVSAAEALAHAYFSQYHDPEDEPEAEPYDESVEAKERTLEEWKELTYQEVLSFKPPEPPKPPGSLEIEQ", "test": "Inhibition of P38beta (unknown origin) at 10 uM after 120 mins P33 radiolabeled kinase activity assay"}, "[2]": {"molecular_target": "cAMP-dependent protein kinase catalytic subunit gamma (Homo sapiens) (UniProt P22612)", "sequence (P22612 2-351 limits assumed)": "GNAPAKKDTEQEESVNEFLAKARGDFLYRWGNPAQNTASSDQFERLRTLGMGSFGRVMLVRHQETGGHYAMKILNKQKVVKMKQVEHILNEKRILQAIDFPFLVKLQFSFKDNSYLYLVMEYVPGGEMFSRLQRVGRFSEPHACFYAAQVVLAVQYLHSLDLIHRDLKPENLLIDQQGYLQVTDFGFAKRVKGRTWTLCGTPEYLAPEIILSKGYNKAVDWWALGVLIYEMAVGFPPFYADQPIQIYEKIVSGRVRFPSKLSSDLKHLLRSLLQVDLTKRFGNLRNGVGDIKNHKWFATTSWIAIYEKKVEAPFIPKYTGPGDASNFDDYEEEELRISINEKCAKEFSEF", "test": "Inhibition of PKAcgamma (unknown origin) at 10 uM after 120 mins P33 radiolabeled kinase activity assay"}, "[3]": {"molecular_target": "T1, Ephrin type-B receptor 3 (Homo sapiens) (UniProt P54753)", "T1 sequence (whole entry)": "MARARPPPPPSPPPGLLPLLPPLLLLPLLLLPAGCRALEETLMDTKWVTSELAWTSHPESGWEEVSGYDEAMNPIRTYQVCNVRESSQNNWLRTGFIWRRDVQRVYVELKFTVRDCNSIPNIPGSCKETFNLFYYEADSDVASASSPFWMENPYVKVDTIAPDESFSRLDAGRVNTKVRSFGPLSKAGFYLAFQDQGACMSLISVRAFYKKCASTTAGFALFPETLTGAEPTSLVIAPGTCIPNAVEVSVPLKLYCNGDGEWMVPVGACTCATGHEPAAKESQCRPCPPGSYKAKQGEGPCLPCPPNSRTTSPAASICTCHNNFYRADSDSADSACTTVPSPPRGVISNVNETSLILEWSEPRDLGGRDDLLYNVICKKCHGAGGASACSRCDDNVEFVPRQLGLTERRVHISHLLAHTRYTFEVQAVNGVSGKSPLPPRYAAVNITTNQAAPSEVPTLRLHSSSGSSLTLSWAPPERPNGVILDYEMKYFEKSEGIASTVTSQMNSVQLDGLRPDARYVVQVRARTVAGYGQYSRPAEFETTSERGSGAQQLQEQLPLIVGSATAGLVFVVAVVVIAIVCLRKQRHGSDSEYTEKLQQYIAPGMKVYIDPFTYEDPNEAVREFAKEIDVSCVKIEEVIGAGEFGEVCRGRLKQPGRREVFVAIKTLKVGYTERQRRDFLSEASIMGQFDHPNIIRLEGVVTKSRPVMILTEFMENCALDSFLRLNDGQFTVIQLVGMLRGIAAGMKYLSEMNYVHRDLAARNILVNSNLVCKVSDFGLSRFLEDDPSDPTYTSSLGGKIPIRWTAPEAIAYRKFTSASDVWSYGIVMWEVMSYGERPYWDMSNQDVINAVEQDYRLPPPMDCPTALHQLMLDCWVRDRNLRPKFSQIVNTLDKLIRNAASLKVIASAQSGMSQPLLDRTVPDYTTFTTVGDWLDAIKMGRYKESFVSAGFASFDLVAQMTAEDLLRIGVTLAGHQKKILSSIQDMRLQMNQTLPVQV", "test": "Inhibition of EPHB3 (unknown origin) at 10 uM after 120 mins P33 radiolabeled kinase activity assay"}, "[4]": {"molecular_target": "Ribosomal protein S6 kinase alpha-4 (Homo sapiens) (UniProt O75676)", "sequence (O75676 whole entry, looked up)": "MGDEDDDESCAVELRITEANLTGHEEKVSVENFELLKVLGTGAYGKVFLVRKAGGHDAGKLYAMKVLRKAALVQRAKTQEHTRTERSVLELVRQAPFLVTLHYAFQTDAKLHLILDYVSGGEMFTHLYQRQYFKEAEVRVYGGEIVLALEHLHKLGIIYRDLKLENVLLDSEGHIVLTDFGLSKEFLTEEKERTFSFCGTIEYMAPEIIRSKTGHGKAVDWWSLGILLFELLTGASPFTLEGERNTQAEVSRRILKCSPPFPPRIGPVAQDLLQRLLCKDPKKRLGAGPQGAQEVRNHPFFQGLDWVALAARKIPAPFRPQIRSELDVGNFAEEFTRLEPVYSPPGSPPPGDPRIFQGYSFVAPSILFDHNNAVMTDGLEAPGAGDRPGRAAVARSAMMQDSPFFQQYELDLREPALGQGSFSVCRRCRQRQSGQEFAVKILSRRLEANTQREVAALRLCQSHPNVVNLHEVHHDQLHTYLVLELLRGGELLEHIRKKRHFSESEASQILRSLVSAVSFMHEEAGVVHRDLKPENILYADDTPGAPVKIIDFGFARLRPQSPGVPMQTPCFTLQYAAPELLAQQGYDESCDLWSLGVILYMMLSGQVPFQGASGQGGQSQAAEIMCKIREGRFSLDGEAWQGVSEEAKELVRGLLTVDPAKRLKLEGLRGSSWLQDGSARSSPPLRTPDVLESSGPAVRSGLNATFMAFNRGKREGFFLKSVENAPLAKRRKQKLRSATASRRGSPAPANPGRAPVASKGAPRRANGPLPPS", "test": "Inhibition of MSK2 (unknown origin) at 10 uM after 120 mins P33 radiolabeled kinase activity assay"}, "[5]": {"molecular_target": "T2, Tyrosine-protein kinase Tec (Homo sapiens) (UniProt P42680)", "T2 sequence (whole entry)": "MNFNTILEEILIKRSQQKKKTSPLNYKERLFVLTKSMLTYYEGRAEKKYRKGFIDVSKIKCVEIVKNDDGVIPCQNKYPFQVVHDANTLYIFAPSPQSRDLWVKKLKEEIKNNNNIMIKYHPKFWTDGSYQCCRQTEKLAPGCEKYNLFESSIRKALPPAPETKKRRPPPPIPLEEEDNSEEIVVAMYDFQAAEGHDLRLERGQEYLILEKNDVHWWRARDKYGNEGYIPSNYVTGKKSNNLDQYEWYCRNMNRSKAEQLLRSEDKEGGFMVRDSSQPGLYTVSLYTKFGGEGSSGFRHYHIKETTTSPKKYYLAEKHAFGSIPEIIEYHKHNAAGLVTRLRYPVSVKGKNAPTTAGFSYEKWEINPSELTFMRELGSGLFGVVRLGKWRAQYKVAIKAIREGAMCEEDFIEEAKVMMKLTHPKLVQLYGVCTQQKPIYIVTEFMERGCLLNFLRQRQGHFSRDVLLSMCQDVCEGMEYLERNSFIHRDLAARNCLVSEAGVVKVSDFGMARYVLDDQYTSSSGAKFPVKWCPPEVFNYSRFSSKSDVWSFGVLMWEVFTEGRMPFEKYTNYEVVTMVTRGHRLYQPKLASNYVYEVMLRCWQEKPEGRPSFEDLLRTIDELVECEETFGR", "test": "Inhibition of TEC (unknown origin) at 10 uM after 120 mins P33 radiolabeled kinase activity assay"}, "[6]": {"molecular_target": "Tyrosine-protein kinase Lyn (Homo sapiens) (UniProt P07948)", "sequence (P07948 2-512 limits assumed)": "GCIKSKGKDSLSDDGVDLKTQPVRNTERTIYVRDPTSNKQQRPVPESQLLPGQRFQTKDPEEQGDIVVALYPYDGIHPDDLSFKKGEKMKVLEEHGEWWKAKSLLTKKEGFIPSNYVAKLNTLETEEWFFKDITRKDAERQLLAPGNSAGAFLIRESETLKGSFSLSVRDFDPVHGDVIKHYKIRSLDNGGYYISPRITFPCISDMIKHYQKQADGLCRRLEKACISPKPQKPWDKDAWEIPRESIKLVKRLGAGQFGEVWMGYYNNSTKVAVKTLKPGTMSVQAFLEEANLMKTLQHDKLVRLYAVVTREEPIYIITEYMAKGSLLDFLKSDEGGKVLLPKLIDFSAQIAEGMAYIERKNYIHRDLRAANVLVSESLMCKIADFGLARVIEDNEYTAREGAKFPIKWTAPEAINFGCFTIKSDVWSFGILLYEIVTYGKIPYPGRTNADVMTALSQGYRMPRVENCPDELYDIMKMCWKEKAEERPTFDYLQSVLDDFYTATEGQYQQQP", "test": "Inhibition of LYN (unknown origin) at 10 uM after 120 mins P33 radiolabeled kinase activity assay"}, "[7]": {"molecular_target": "Receptor-interacting serine/threonine-protein kinase 3 (Homo sapiens) (UniProt Q9Y572)", "sequence (Q9Y572 whole entry, looked up)": "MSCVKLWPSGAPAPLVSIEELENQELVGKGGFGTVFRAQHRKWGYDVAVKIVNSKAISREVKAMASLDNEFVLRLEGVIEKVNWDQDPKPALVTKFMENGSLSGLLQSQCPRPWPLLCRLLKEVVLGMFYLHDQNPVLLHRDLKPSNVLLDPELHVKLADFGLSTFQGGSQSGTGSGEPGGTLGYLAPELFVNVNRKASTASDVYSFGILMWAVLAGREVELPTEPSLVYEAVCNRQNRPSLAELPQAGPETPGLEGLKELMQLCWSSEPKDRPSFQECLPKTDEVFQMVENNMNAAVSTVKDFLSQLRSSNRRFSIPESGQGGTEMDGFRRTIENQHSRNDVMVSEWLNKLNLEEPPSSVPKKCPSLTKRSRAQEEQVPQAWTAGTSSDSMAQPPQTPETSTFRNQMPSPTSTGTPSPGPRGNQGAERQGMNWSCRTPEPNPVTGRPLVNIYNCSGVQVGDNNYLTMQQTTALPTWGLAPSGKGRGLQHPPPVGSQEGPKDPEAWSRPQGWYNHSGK", "test": "Inhibition of RIPK3 (unknown origin) at 10 uM after 120 mins P33 radiolabeled kinase activity assay"}, "[8]": {"molecular_target": "T3, 3-phosphoinositide-dependent protein kinase 1 (Homo sapiens) (UniProt O15530)", "T3 sequence (whole entry)": "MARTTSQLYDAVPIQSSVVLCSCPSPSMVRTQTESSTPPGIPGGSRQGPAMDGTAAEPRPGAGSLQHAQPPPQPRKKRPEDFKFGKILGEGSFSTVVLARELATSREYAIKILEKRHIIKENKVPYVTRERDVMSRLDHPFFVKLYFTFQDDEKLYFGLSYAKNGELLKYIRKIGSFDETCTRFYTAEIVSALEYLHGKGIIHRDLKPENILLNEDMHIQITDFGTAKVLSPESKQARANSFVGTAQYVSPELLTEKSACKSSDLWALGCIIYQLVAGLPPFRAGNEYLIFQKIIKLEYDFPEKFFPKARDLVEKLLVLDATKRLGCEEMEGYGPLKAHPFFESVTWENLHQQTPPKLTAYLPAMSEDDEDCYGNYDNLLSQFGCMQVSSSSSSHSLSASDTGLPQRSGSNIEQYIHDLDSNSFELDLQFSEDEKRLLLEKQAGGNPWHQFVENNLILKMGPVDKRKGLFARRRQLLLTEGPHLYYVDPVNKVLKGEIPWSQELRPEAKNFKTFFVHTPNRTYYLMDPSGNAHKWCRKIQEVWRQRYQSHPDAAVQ", "test": "Inhibition of PDK1 (unknown origin) at 10 uM after 120 mins P33 radiolabeled kinase activity assay"}}, "data": [{"smiles": "CS(=O)(=O)c1cccc(Nc2nccc(-c3sc(N4CCOCC4)nc3-c3cccc(NS(=O)(=O)c4c(F)cccc4F)c3)n2)c1", "values": [{"measurement": "inhibition", "setting": "[1]", "result": -5.84, "unit": "%"}, {"measurement": "inhibition", "setting": "[2]", "result": 9.35, "unit": "%"}, {"measurement": "inhibition", "setting": "[3]", "result": 7.1, "unit": "%"}, {"measurement": "inhibition", "setting": "[4]", "result": 19.5, "unit": "%"}, {"measurement": "inhibition", "setting": "[5]", "result": 89.2, "unit": "%"}, {"measurement": "inhibition", "setting": "[6]", "result": 100, "unit": "%"}, {"measurement": "inhibition", "setting": "[7]", "result": 83.1, "unit": "%"}, {"measurement": "inhibition", "setting": "[8]", "result": 7.26, "unit": "%"}]}, {"smiles": "COCCNC(=O)c1ccc2c(c1)nc(-c1cnc(-c3ccc(Cl)cc3)[nH]1)n2CCOC", "values": [{"measurement": "inhibition", "setting": "[1]", "result": 10, "unit": "%"}, {"measurement": "inhibition", "setting": "[2]", "result": 0.62, "unit": "%"}, {"measurement": "inhibition", "setting": "[3]", "result": 5.87, "unit": "%"}, {"measurement": "inhibition", "setting": "[4]", "result": 4.4, "unit": "%"}, {"measurement": "inhibition", "setting": "[5]", "result": 5.53, "unit": "%"}, {"measurement": "inhibition", "setting": "[6]", "result": 61.6, "unit": "%"}, {"measurement": "inhibition", "setting": "[7]", "result": 27.6, "unit": "%"}, {"measurement": "inhibition", "setting": "[8]", "result": 4.43, "unit": "%"}]}, {"smiles": "CC(C)(C)c1cc(NC(=O)Nc2ccc(Oc3ccncc3)cc2)no1", "values": [{"measurement": "inhibition", "setting": "[1]", "result": 96.2, "unit": "%"}, {"measurement": "inhibition", "setting": "[2]", "result": 78.7, "unit": "%"}, {"measurement": "inhibition", "setting": "[3]", "result": 93.3, "unit": "%"}, {"measurement": "inhibition", "setting": "[4]", "result": 70.5, "unit": "%"}, {"measurement": "inhibition", "setting": "[5]", "result": 3.88, "unit": "%"}, {"measurement": "inhibition", "setting": "[6]", "result": 98.2, "unit": "%"}, {"measurement": "inhibition", "setting": "[7]", "result": 81.4, "unit": "%"}, {"measurement": "inhibition", "setting": "[8]", "result": 8.32, "unit": "%"}]}]}
